Assay results as given in ChEMBL document CHEMBL3864165, “Design, synthesis, and AChE inhibitory activity of new benzothiazole-piperazines” (Bioorg Med Chem Lett, 2016).
pIC50: −log10 of the molar value.

Experiments:
[1] = molecular target: Acetylcholinesterase (Electrophorus electricus) (UniProt O42275); assay: Inhibition of electric eel AChE at 10^-6 M preincubated for 15 mins followed by acetylthiocholine iodide substrate addition measured for 5 mins by Ellman's spectrophotometric method relative to control
Sequence of Acetylcholinesterase (Electrophorus electricus) (O42275 24-633 limits assumed): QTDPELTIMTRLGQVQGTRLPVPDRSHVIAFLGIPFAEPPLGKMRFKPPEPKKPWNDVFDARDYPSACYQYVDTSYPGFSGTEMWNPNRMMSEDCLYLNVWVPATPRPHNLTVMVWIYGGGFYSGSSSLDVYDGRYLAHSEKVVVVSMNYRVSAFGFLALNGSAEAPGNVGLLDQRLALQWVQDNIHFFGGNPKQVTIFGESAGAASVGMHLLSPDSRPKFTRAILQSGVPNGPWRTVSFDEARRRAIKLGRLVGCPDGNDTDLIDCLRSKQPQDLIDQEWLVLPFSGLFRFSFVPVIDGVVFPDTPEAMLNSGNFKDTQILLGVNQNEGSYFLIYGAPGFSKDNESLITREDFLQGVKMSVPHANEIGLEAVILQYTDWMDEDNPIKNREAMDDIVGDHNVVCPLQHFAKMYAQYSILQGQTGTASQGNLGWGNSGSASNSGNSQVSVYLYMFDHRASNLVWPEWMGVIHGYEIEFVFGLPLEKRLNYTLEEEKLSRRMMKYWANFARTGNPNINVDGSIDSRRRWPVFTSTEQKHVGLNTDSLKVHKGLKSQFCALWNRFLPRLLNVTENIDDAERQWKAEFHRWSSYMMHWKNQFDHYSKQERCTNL

[2] = molecular target: Acetylcholinesterase (Electrophorus electricus) (UniProt O42275); assay: Inhibition of electric eel AChE at 10^-7 M preincubated for 15 mins followed by acetylthiocholine iodide substrate addition measured for 5 mins by Ellman's spectrophotometric method relative to control
Acetylcholinesterase = Acetylcholinesterase (Electrophorus electricus, UniProt O42275); assay: Inhibition of electric eel AChE preincubated for 15 mins followed by acetylthiocholine iodide substrate addition measured for 5 mins by Ellman's spectrophotometric method
Sequence of Acetylcholinesterase (O42275 whole entry): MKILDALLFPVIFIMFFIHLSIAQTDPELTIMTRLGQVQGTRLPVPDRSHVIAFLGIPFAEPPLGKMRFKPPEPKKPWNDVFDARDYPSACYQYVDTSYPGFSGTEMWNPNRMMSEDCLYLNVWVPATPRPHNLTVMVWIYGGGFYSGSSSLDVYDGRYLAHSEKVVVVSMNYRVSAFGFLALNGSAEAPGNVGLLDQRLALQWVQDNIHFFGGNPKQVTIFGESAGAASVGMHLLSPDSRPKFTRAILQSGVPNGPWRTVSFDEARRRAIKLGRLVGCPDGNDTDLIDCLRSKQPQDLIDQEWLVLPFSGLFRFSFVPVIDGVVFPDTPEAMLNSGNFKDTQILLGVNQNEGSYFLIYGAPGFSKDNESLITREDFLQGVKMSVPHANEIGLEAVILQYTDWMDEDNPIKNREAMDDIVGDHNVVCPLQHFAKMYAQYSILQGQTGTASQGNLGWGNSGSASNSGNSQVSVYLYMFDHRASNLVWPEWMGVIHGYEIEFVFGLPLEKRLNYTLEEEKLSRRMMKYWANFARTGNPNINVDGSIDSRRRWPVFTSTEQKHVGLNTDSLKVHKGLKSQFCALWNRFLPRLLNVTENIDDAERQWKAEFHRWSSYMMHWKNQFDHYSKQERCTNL

[3] = Cytotoxicity against mouse NIH/3T3 cells after 24 hrs by MTT assay; conditions: nih3t3

SMILES | inhibition [1] | inhibition [2] | pIC50 (Acetylcholinesterase) | IC50 at 24 h [3]
COc1ccc2nc(NC(=O)CN3CCN(CCN(C)C)CC3)sc2c1 | > 50% | > 50% | 7.02 | –
COc1ccc(CN2CCN(CC(=O)Nc3nc4cc(OC)c(OC)cc4s3)CC2)cc1 | > 50% | – | 6.60 | –
COc1ccc2nc(NC(=O)CN3CCN(Cc4ccc(F)cc4)CC3)sc2c1 | > 50% | – | 6.61 | –
COc1cc2nc(NC(=O)CN3CCN(Cc4ccc(C(F)(F)F)cc4)CC3)sc2cc1OC | > 50% | – | 6.70 | –
COc1cc2nc(NC(=O)CN3CCN(Cc4ccc(F)cc4)CC3)sc2cc1OC | > 50% | – | 6.76 | –
COc1ccc2nc(NC(=O)CN3CCN(Cc4ccc(C)cc4)CC3)sc2c1 | > 50% | – | 6.49 | –
COc1cc2c(cc1OC)C(=O)C(CC1CCN(Cc3ccccc3)CC1)C2 (stereo unspecified) [DONEPEZIL] | – | – | – | 316000 nM
COc1ccc(CN2CCN(CC(=O)Nc3nc4ccc(OC)cc4s3)CC2)cc1 | > 50% | – | 6.40 | –
